Measured values: PubChem BioAssay (NCI)
Values joined by “and” are separate entries in the source; they are usually repeats but may differ in a detail not shown here. Equal values may be shown once.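 These data come from cells grown in 96-well plates and exposed to compound for 48 hours at five concentrations. GI50 marks 50% less growth. Definition used: TGI = concentration required for complete inhibition of growth.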

Assays:
Assay in all cases: NCI-60 cell line screen, 48 h
ACHN renal = test system: ACHN renal
SNB-75 CNS = test system: SNB-75 CNS
BT-549 breast = test system: BT-549 breast
MDA-MB-231 breast = test system: MDA-MB-231 breast
MALME-3M melanoma = test system: MALME-3M melanoma
SN12C renal = test system: SN12C renal
LOX IMVI melanoma = test system: LOX IMVI melanoma

Row | SMILES | GI50 (ACHN renal) | TGI (ACHN renal) | GI50 (SNB-75 CNS) | TGI (SNB-75 CNS) | GI50 (BT-549 breast) [µM] | TGI (BT-549 breast) [µM] | GI50 (MDA-MB-231 breast) | TGI (MDA-MB-231 breast) | GI50 (MALME-3M melanoma) [nM] | TGI (MALME-3M melanoma) [µM] | GI50 (SN12C renal) | TGI (SN12C renal) | TGI (LOX IMVI melanoma) | GI50 (LOX IMVI melanoma) [µM]
1 | CCCCCCCCCCCCCCCC[N+](C)(C)C | 0.332 µM and 1.44 µM | 1.61 µM and 4.03 µM | 142 nM and 1360 nM | 0.396 µM and 3.72 µM | 0.267 | 0.873 | 0.169 µM and 1.38 µM | 0.405 µM and 3.55 µM | 1800 | 5.08 | 285 nM and 2060 nM | 1.07 µM and 4.56 µM | 0.332 µM and 3.07 µM | –
2 | O=c1cc(-c2ccccc2)oc2cc(OCc3cn(Cc4ccc(F)cc4)nn3)cc(O)c12 | 6.23 µM | > 100 µM | 3740 nM | 28 µM | 7.98 | > 100 | 16.6 µM | > 100 µM | 5060 | > 100 | > 100000 nM | > 100 µM | > 100 µM | > 100
3 | Cc1cc2cc(Oc3ccnc(Nc4cccc(CS(=O)(=O)NCCN(C)C)c4)n3)ccc2[nH]1 | 7.22 µM | 20.3 µM | 1310 nM | 4.89 µM | 5.03 | 18.1 | 4.61 µM | 17.2 µM | 2960 | 10.5 | 5810 nM | 19.2 µM | 15 µM | 3.51
4 | CC(C)NCCCNC1=C(Cl)C(=O)c2ccccc2C1=O | 12.6 µM | 25.8 µM | 10300 nM | 22.4 µM | 5.36 | 18.2 | 4.08 µM | 18.3 µM | 1970 | 3.69 | 1890 nM | 3.93 µM | 3.96 µM | 1.87
5 | COc1ccccc1NC(=O)N/C(N)=N/c1nc2ccccc2s1 | 0.327 µM | > 100 µM | 55.6 nM | – | 0.334 | > 100 | 3.48 µM | > 100 µM | – | – | 307 nM | > 100 µM | > 100 µM | 0.145
6 | COc1ccc(OC)c(-c2cn3nc(-c4c[nH]c5ccc(Br)cc45)sc3n2)c1 | 2.02 µM | 6.49 µM | 3720 nM | 24.3 µM | 2.9 | 11.2 | 1.73 µM | 4.05 µM | 2250 | 4.93 | 2740 nM | 10 µM | – | –
7 | CCN(CCc1ccc(F)cc1)c1ccc(CO)c(Cl)c1 | 9.59 µM | 22.5 µM | 9260 nM | 25.9 µM | 11.4 | 23.8 | 11.4 µM | 24.4 µM | 16000 | 31.1 | 9270 nM | 23 µM | 25.6 µM | 12.1
8 | COc1cc(/C=C\c2cc(/C=C\c3ccc(O)c(OC)c3)n(C(=O)Nc3ccc(C(F)(F)F)cc3)n2)ccc1O | 2.48 µM | 7.08 µM | 2990 nM | 66 µM | 1.96 | 3.67 | 3.06 µM | 9.62 µM | 2890 | 8.4 | 2730 nM | 9.9 µM | – | –
9 | c1ccc(CN2CCC3(CC2)ONC2=NCCN23)cc1 | 49.7 µM | > 100 µM | > 100000 nM | > 100 µM | > 100 | > 100 | > 100 µM | > 100 µM | > 100000 | > 100 | 27100 nM | 82 µM | 55.5 µM | 21.7
10 | N#C/C(=C/c1cccs1)c1cccs1 | > 100 µM | > 100 µM | > 100000 nM | > 100 µM | – | – | > 100 µM | > 100 µM | > 100000 | > 100 | > 100000 nM | > 100 µM | > 100 µM | > 100
11 | COc1ncnc2c1ncn2C/C(Br)=C(\Br)CCl | 2.14 µM | 4.92 µM | 2010 nM | 8.57 µM | – | – | 2.4 µM | 7.28 µM | 1490 | 3.21 | 2440 nM | 9.52 µM | 9.61 µM | 2.79
12 | COc1cc(C)c(N(C)C(=O)CN(C)C)cc1Nc1nc(Nc2cccc(F)c2C(N)=O)c2cc[nH]c2n1 | > 25 µM | > 25 µM | > 25000 nM | > 25 µM | 18.4 | > 25 | > 25 µM | > 25 µM | > 25000 | > 25 | > 25000 nM | > 25 µM | > 25 µM | 24.6
